Data taken from ChEMBL document CHEMBL4364246, “Synthesis and biological evaluation of 5-aminoethyl benzophenanthridone derivatives as DNA topoisomerase IB inhibitors” (Eur J Med Chem, 2019).

How the values were obtained:
SF-295 = experiment: Growth inhibition of human SF295 cells incubated for 48 hrs by sulforhodamine B assay; type: functional; settings: SF-295, 48 h
UO-31 = experiment: Growth inhibition of human UO31 cells incubated for 48 hrs by sulforhodamine B assay; type: functional; settings: UO-31, 48 h
DU-145 = experiment: cells; settings: Homo sapiens, DU-145, 72 h
HCC 2998 = experiment: Growth inhibition of human HCC2998 cells incubated for 48 hrs by sulforhodamine B assay; type: functional; settings: HCC 2998, 48 h
Hs-578T = experiment: Growth inhibition of human Hs 578T cells incubated for 48 hrs by sulforhodamine B assay; type: functional
HCT-116 = experiment: Growth inhibition of human HCT116 cells incubated for 48 hrs by sulforhodamine B assay; type: functional; settings: HCT-116, 48 h
NCI-H322M = experiment: Growth inhibition of human NCI-H322M cells incubated for 48 hrs by sulforhodamine B assay; type: functional
SNB-75 = experiment: Growth inhibition of human SNB75 cells incubated for 48 hrs by sulforhodamine B assay; type: functional; settings: SNB-75, 48 h
RPMI-8226 = experiment: Growth inhibition of human RPMI8226 cells incubated for 48 hrs by sulforhodamine B assay; type: functional; settings: RPMI-8226, 48 h
CAKI-1 = experiment: Growth inhibition of human Caki1 cells incubated for 48 hrs by sulforhodamine B assay; type: functional; settings: CAKI-1, 48 h
OVCAR-8 = experiment: Growth inhibition of human OVCAR8 cells incubated for 48 hrs by sulforhodamine B assay; type: functional; settings: OVCAR-8, 48 h
NCI-H23 = experiment: Growth inhibition of human NCI-H23 cells incubated for 48 hrs by sulforhodamine B assay; type: functional; settings: NCI-H23, 48 h
SK-MEL-5 = experiment: Growth inhibition of human SK-MEL-5 cells incubated for 48 hrs by sulforhodamine B assay; type: functional; settings: SK-MEL-5, 48 h
SK-MEL-2 = experiment: Growth inhibition of human SK-MEL-2 cells incubated for 48 hrs by sulforhodamine B assay; type: functional; settings: SK-MEL-2, 48 h
SF-539 = experiment: Growth inhibition of human SF539 cells incubated for 48 hrs by sulforhodamine B assay; type: functional; settings: SF-539, 48 h
SN12C = experiment: Growth inhibition of human SN12C cells incubated for 48 hrs by sulforhodamine B assay; type: functional
SNB-19 = experiment: Growth inhibition of human SNB19 cells incubated for 48 hrs by sulforhodamine B assay; type: functional; settings: SNB-19, 48 h
TK-10 = experiment: Growth inhibition of human TK10 cells incubated for 48 hrs by sulforhodamine B assay; type: functional; settings: TK-10, 48 h
A498 = experiment: Growth inhibition of human A498 cells incubated for 48 hrs by sulforhodamine B assay; type: functional; settings: A498, 48 h
A549 = experiment: cells; settings: Homo sapiens, A549, 72 h
K562 = experiment: Growth inhibition of human K562 cells incubated for 48 hrs by sulforhodamine B assay; type: functional; settings: K562, 48 h
OVCAR-5 = experiment: Growth inhibition of human OVCAR5 cells incubated for 48 hrs by sulforhodamine B assay; type: functional; settings: OVCAR-5, 48 h
[1] = target: T1, DNA topoisomerase 1 (Homo sapiens) (UniProt P11387); experiment: Inhibition of recombinant TOP1 (unknown origin) using 3'-[32P]-labeled 117 bp DNA oligonucleotide assessed as TOP1-mediated DNA cleavage by measuring induction and stabilization of cleavage sites 17, 35 and 79 incubated for 20 mins by PAGE analysis
T1 sequence (whole entry): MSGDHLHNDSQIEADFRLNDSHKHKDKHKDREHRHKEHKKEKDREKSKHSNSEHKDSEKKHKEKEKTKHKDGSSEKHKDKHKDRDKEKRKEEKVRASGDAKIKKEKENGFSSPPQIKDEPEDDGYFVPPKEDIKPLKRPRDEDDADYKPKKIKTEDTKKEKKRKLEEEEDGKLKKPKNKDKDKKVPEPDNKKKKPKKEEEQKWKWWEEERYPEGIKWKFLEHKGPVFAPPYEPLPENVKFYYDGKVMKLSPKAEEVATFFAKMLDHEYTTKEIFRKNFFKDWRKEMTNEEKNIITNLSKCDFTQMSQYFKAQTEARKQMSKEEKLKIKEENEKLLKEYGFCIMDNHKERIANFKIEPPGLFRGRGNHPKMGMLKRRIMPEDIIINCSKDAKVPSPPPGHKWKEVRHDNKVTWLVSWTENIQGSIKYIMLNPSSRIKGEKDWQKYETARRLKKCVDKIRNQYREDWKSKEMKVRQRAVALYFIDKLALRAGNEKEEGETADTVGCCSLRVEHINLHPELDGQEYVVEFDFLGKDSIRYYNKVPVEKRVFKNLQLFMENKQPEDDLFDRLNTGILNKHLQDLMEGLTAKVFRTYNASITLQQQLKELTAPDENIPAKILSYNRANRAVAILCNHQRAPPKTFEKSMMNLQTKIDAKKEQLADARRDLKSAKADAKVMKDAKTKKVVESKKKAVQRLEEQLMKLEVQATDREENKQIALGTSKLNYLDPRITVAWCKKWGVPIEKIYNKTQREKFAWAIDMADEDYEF

UACC-62 = experiment: Growth inhibition of human UACC62 cells incubated for 48 hrs by sulforhodamine B assay; type: functional; settings: UACC-62, 48 h
MDA-MB-435 = experiment: Growth inhibition of human MDA-MB-435 cells incubated for 48 hrs by sulforhodamine B assay; type: functional; settings: MDA-MB-435, 48 h
UACC-257 = experiment: Growth inhibition of human UACC257 cells incubated for 48 hrs by sulforhodamine B assay; type: functional; settings: UACC-257, 48 h
U-251 = experiment: Growth inhibition of human U251 cells incubated for 48 hrs by sulforhodamine B assay; type: functional; settings: U-251, 48 h
MOLT-4 = experiment: Growth inhibition of human MOLT4 cells incubated for 48 hrs by sulforhodamine B assay; type: functional; settings: MOLT-4, 48 h
SK-OV-3 = experiment: Growth inhibition of human SKOV3 cells incubated for 48 hrs by sulforhodamine B assay; type: functional; settings: SK-OV-3, 48 h
NCI-H522 = experiment: Growth inhibition of human NCI-H522 cells incubated for 48 hrs by sulforhodamine B assay; type: functional; settings: NCI-H522, 48 h
PC-3 = experiment: Growth inhibition of human PC3 cells incubated for 48 hrs by sulforhodamine B assay; type: functional; settings: PC-3, 48 h
SF-268 = experiment: Growth inhibition of human SF268 cells incubated for 48 hrs by sulforhodamine B assay; type: functional; settings: SF-268, 48 h
NCI-H460 = experiment: Growth inhibition of human NCI-H460 cells incubated for 48 hrs by sulforhodamine B assay; type: functional; settings: NCI-H460, 48 h
MCF7 = experiment: Growth inhibition of human MCF7 cells incubated for 48 hrs by sulforhodamine B assay; type: functional; settings: MCF7, 48 h
HCT-15 = experiment: Growth inhibition of human HCT15 cells incubated for 48 hrs by sulforhodamine B assay; type: functional; settings: HCT-15, 48 h
786-0 = experiment: Growth inhibition of human 786-0 cells incubated for 48 hrs by sulforhodamine B assay; type: functional; settings: 786-0, 48 h

Compound | GI50 (SF-295) | GI50 (UO-31) | GI50 (DU-145) | GI50 (HCC 2998) | GI50 (Hs-578T) | GI50 (HCT-116) | GI50 (NCI-H322M) | GI50 (SNB-75) | GI50 (RPMI-8226) | GI50 (CAKI-1) | GI50 (OVCAR-8) | GI50 (NCI-H23) | GI50 (SK-MEL-5) | GI50 (SK-MEL-2) | GI50 (SF-539) | GI50 (SN12C) | GI50 (SNB-19) | GI50 (TK-10) | GI50 (A498) | GI50 (A549) | also measured
COc1cc2c(=O)n(CCN)c3c4cc5c(cc4ccc3c2cc1OC)OCO5 | 279 nM | 350 nM | 14 nM | 1020 nM | 1960 nM | 285 nM | 990 nM | 596 nM | 257 nM | 295 nM | 930 nM | 451 nM | 614 nM | 3010 nM | 1060 nM | 739 nM | 398 nM | 1350 nM | 1230 nM | 980 nM | GI50 (K562): 161 nM; GI50 (OVCAR-5): 1200 nM; Activity [1]: Dose-dependent effect; GI50 (UACC-62): 278 nM; GI50 (MDA-MB-435): 759 nM; GI50 (UACC-257): 1900 nM; GI50 (U-251): 260 nM; GI50 (MOLT-4): 63.3 nM; GI50 (SK-OV-3): 1240 nM; GI50 (NCI-H522): 87.5 nM; GI50 (PC-3): 532 nM; GI50 (SF-268): 442 nM; GI50 (NCI-H460): 230 nM; GI50 (MCF7): 164 nM; GI50 (HCT-15): 420 nM; GI50 (786-0): 464 nM
CNCCn1c(=O)c2cc(OC)c(OC)cc2c2ccc3cc4c(cc3c21)OCO4 | 34.6 nM | 104 nM | 2 nM | 156 nM | 904 nM | 51.5 nM | 147 nM | 88.5 nM | 76.3 nM | 64.4 nM | 132 nM | 90.6 nM | 90.9 nM | 393 nM | 124 nM | 171 nM | 116 nM | 316 nM | 127 nM | 970 nM | GI50 (K562): 39.4 nM; GI50 (OVCAR-5): 183 nM; Activity [1]: Dose-dependent effect; GI50 (UACC-62): 45.1 nM; GI50 (MDA-MB-435): 118 nM; GI50 (UACC-257): 122 nM; GI50 (U-251): 39.4 nM; GI50 (MOLT-4): 23.4 nM; GI50 (SK-OV-3): 157 nM; GI50 (NCI-H522): 27.4 nM; GI50 (PC-3): 112 nM; GI50 (SF-268): 90.3 nM; GI50 (NCI-H460): 21.2 nM; GI50 (MCF7): 29.2 nM; GI50 (HCT-15): 116 nM; GI50 (786-0): 70.3 nM
